Results reported in patent US20230263786A1, “MODULATION OF DRUG-DRUG INTERACTIONS OF VADADUSTAT” (Akebia Therapeutics, Inc., priority 2020, published 2023).

Tests used:
[1] = Phase 1 oral iron interaction study, Cohort 2 (before meal): sucroferric oxyhydroxide; format: in vivo, human; conditions: for AUC(0-inf) / AUC(0-t) / Cmax / half-life: male, human, plasma, oral; for AUC(0-inf): read-out: AUC(0-inf), LS geometric mean; for AUC(0-t): read-out: AUC(0-last), LS geometric mean; for Cmax: read-out: Cmax, LS geometric mean; for half-life: read-out: t1/2, LS geometric mean (converted)
From the text: (§1) The study included 3 periods as follow: • Screening: performed within 4 weeks before the day of administration of the study drug. • Evaluation period: Cohort 1 was confined to the study site for 10-night, 11-day. Cohort 2 and Cohort 3 were confined to the study site for 7 nights and 8 days. • Post-administration tests: performed 3 days after administration of the last dose of the study drug.
In Cohort 2, 20 subjects were further randomized into 2 groups (10 subjects per group) and the evaluation period was divided into 2 periods during the study:
(§2) Administration of vadadustat tablets alone: after fasting for at least 10 hours and immediately before eating breakfast (5 minutes before starting the meal), 1 vadadustat tablet (150 mg) will be taken orally with 200 mL of water, then breakfast would be eaten over a period of 10 minutes (extra water may be drunk if more is needed when taking the tablet, and the extra volume would be recorded). After breakfast, subjects would fast until the end of the collection of blood samples at 4 hours after administration of the study drug. Subjects would eat lunch over a period of 20 minutes after blood samples were collected at 4 hours after administration of the study drug. After lunch, subjects would fast until dinner, when they would eat dinner over a period of 20 minutes at 10 hours after administration of the study drug. Subjects would fast from dinner until breakfast the next morning.
Administration of vadadustat tablets and sucroferric oxyhydroxide: after fasting for at least 10 hours and immediately before eating breakfast (5 minutes before starting the meal), subjects would chew and swallow 2 tablets of sucroferric oxyhydroxide (containing 1000 mg of iron), then 1 vadadustat tablet (150 mg) would be taken orally with 200 mL of water, then breakfast would be eaten over a period of 10 minutes (extra water may be drunk if more is needed when taking the tablets, and the extra volume would be recorded). After breakfast, subjects would fast until the end of the collection of blood samples at 4 hours after administration of the study drug. After blood samples were collected at 4 hours after administration of the study drug and immediately before lunch, subjects would chew and swallow 2 tablets of sucroferric oxyhydroxide (containing 1000 mg of iron), then eat lunch over a period of 20 minutes. After lunch, subjects will fast until dinner, and immediately before dinner at 10 hours after administration of the study drug, chew and swallow 2 tablets of sucroferric oxyhydroxide (containing 1000 mg of iron), then eat dinner over a period of 20 minutes. Subjects would fast from dinner until breakfast the next morning.

[2] = Phase I ferrous sulfate tablet interaction study;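 also: crossover in fasted human subjects with four-day washout between periods, plasma glucuronide metabolite pharmacokinetics, ratios computed as metabolite over parent for AUC and Cmax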
[3] = Phase I interaction study with statins and sulfasalazine: safety and tolerability; format: in vivo, human; conditions: taken alone or during treatment with rosuvastatin, pravastatin, atorvastatin, or simvastatin
Protocol: The pharmacokinetic (pK) parameters and safety of said drugs administered alone and in combination with Compound 1 were characterized.
Safety and Tolerability. Subject safety were evaluated throughout the study beginning on Day 1 (Baseline) until 30 days (±2 days) post last dose. The following safety assessments were performed: physical exam, 12-lead ECG (electrocardiogram), vital signs, clinical laboratory results, QuantiFERON®-TB Test, serology, and pregnancy. Adverse events (AE) were summarized.

[4] = Phase 1 oral iron interaction study, Cohort 3 (fasting): dried ferrous sulfate slow release; format: in vivo, human; conditions: for AUC(0-inf) / AUC(0-t) / Cmax / half-life: male, human, plasma, oral; for AUC(0-inf): read-out: AUC(0-inf), LS geometric mean; for AUC(0-t): read-out: AUC(0-last), LS geometric mean; for Cmax: read-out: Cmax, LS geometric mean; for half-life: read-out: t1/2, LS geometric mean (converted)
From the text: as §1
In Cohort 3, 20 subjects were further randomized into 2 groups (10 subjects per group) and the evaluation period was divided into 2 periods during the study:
as §2, with “hours,” for “hours and immediately before eating breakfast (5 minutes before starting the meal),”, “would” for “will”, “water” for “water, then breakfast would be eaten over a period of 10 minutes”, “Subjects” for “After breakfast, subjects”
as §2, with “and dried ferrous sulfate:” for “alone:”, “hours,” for “hours and immediately before eating breakfast (5 minutes before starting the meal),”, “and 2 tablets of dried ferrous sulfate (containing 210 mg of iron) would” for “will”, “water” for “water, then breakfast would be eaten over a period of 10 minutes”, “tablets,” for “tablet,”, “Subjects” for “After breakfast, subjects”

[5] = 150 mg with sucroferric oxyhydroxide (1000 mg iron), before meal
[6] = Compound 1+Iron compared to Compound 1 alone
[7] = 150 mg with dried ferrous sulfate slow release (210 mg iron), fasting

With `O=C(O)CNC(=O)c1ncc(-c2cccc(Cl)c2)cc1O` [Compound 1, {[5-(3-chlorophenyl)-3-hydroxypyridine-2-carbonyl]amino}acetic acid] the “Kel, LS geometric mean” value [1, 5] was 0.16 h⁻¹, the “Kel, LS geometric mean” value ([1]; Compound 1 150 mg alone, before meal) was 0.13 h⁻¹ and the AUC(0-inf) ([1]; 150 mg) was 99500 ng·h/mL. It also gave an AUC(0-t) ([1]; 150 mg) of 95700 ng·h/mL, a Cmax ([1]; 150 mg) of 15200 ng/mL and a half-life ([1]; 150 mg) of 5.17 h. The AUC(0-inf) [1, 5] was 45700 ng·h/mL, the AUC(0-t) [1, 5] was 44500 ng·h/mL and the Cmax [1, 5] was 8810 ng/mL. For the same compound, the half-life [1, 5] was 4.33 h, the “lowering of Cmax” value [2, 6] was “approximately 51%” and the “lowering of mean plasma AUC (AUC0-t and AUC0-inf)” value [2, 6] was “approximately 54%”. The “AEs, SAEs, deaths” value ([2]; single 450 mg dose with or without ferrous sulfate) was “no AEs, SAEs, or deaths”, the tolerability [3] was “well tolerated” and the “Kel, LS geometric mean” value [4, 7] was 0.14 h⁻¹. For the same compound, the “Kel, LS geometric mean” value ([4]; Compound 1 150 mg alone, fasting) was 0.13 h⁻¹, the AUC(0-inf) ([4]; 150 mg) was 128000 ng·h/mL and the AUC(0-t) ([4]; 150 mg) was 124000 ng·h/mL. The Cmax ([4]; 150 mg) was 26500 ng/mL, the half-life ([4]; 150 mg) was 5.17 h and the AUC(0-inf) [4, 7] was 13200 ng·h/mL. The AUC(0-t) [4, 7] was 12000 ng·h/mL, the Cmax [4, 7] was 2140 ng/mL and the half-life [4, 7] was 4.8 h.
